Data: BindingDB's records for patent US20250171431 (Horizon Therapeutics Ireland Dac, 2025)
pIC50: −log10 of the molar value.

Biological target: Insulin-like growth factor 1 receptor (Homo sapiens, UniProt P08069)
Assay: Biologic and Pharmacologic Assay
Protocol: The media was removed and replaced by 50 μL of 1× lysis buffer from the AlphaLISA kit (with 1× of cOmplete™ protease inhibitor). The plates were sealed, and cells were allowed to lyse for 10 min in the shaker before storing the plate at −20° C. until used. The AlphaLISA assay with processed cell lysates were performed as described in the protocol. Briefly, 10 μL of the undiluted sample were loaded to 384 well Optiplates and 5 μL of the acceptor mix (as described in the AlphaLISA kit) was added to each well. The plates were sealed and briefly vortexed followed by the incubation at RT for 3 hours. In the dark, 5 μL of donor mix was added to each well. All plates were sealed and stored at RT overnight. The plates were read in EnVision reader using standard AlphaLISA settings.Compound activity was analyzed using CBIS data analysis suite (ChemInnovation, CA).

Insulin-like growth factor 1 receptor, sequence (P08069 31-736 limits assumed): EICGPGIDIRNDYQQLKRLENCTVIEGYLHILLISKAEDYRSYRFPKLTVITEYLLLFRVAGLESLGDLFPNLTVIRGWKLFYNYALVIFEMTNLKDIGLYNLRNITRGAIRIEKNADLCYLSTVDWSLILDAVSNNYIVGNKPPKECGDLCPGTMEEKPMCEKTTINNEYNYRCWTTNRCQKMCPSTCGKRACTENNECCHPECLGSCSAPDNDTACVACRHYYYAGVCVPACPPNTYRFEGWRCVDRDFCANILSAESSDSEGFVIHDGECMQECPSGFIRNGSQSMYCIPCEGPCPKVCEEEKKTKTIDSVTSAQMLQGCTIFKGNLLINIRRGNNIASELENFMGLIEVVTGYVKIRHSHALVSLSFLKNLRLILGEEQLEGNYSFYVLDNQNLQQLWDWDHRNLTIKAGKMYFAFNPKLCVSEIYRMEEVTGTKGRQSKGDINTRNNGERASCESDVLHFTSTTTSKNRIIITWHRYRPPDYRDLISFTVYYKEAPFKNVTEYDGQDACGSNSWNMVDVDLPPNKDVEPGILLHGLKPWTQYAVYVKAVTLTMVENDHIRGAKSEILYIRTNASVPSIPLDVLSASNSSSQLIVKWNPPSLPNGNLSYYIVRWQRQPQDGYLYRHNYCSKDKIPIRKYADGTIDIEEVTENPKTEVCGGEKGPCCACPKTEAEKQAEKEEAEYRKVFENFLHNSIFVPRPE
Insulin-like growth factor 1 receptor, sequence (P08069 741-1367 limits assumed): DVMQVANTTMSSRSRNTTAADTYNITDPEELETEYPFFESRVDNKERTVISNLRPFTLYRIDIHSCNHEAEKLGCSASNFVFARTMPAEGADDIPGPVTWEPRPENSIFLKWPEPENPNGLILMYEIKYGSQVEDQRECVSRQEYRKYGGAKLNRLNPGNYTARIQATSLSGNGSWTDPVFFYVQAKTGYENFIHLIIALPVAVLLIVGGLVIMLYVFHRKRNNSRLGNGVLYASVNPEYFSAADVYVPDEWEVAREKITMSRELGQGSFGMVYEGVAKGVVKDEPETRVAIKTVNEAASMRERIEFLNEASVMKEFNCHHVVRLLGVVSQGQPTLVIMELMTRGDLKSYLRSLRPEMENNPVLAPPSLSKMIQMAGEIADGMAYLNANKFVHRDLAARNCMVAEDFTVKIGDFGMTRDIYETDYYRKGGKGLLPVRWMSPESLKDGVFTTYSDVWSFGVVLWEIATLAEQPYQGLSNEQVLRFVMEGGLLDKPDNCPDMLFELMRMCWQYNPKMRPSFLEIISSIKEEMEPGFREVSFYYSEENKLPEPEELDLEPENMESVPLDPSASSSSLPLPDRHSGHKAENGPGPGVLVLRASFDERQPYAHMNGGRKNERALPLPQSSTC

Row | pIC50 | SMILES
1 | > 6.30 | COc1cc(Nc2nccc(Nc3cnc4ccccc4c3)n2)ccc1N1CCC(N2CCCCC2)CC1 [US20250171431, Compound 1]
2 | > 6.30 | COc1cc(Nc2nccc(Nc3cnc4cncc(F)c4c3)n2)cnc1O[C@H]1C[C@@H](N(C)C)C1 [US20250171431, Compound 88]
3 | > 6.30 | COc1cc(N2CCN(C)CC2)ncc1Nc1nccc(Nc2cc3cccc(F)c3nc2O)n1 [US20250171431, Compound 91]
4 | > 6.30 | COc1cc(Nc2nccc(Nc3cnc4ccccc4c3)n2)ccc1N1CCC(N(C)C)CC1 [US20250171431, Compound 95]
5 | > 6.30 | COc1cc(Nc2nccc(Nc3cc4c(F)cccc4[nH]c3=O)n2)ccc1O[C@H]1C[C@@H](N(C)C)C1 [US20250171431, Compound 123]
6 | > 6.30 | COc1cc(Nc2nccc(Nc3ccc(C4CC4)nc3C(N)=O)n2)ccc1O[C@H]1C[C@@H](N(C)C)C1 [US20250171431, Compound 124]
7 | > 6.30 | COc1cc(Nc2nccc(Nc3cc(F)c4ncc(Br)cc4c3)n2)ccc1O[C@H]1C[C@@H](N(C)C)C1 [US20250171431, Compound 133]
8 | > 6.30 | COc1cc(Nc2nccc(Nc3ccc4ncc(Cl)nc4c3)n2)ccc1O[C@H]1C[C@@H](N(C)C)C1 [US20250171431, Compound 134]
9 | > 6.30 | COc1cc(Nc2nccc(Nc3cc4cccc(F)c4[nH]c3=O)n2)cnc1N1CCC(N(C)C)CC1 [US20250171431, Compound 164]
10 | > 6.30 | COc1cc(Nc2nccc(Nc3cc4cccc(F)c4[nH]c3=O)n2)ccc1C1CCNCC1(F)F (stereo not given) [US20250171431, Compound 208]
11 | > 6.30 | COc1cc(C2CCNCC2(F)F)ccc1Nc1nccc(Nc2cc3cccc(F)c3[nH]c2=O)n1 (stereo not given) [US20250171431, Compound 222]
12 | > 6.30 | COc1cc(Nc2nccc(Nc3cc4cc(Cl)ccc4[nH]c3=O)n2)ccc1O[C@H]1CC[C@@H](N(C)C)CC1 [US20250171431, Compound 247]
13 | < 5.00 | COc1cc(Nc2nccc(Nc3cc4cccc(F)c4nc3O)n2)cnc1O[C@@H]1C[C@H](N(C)C)C1(C)C [US20250171431, Compound 253]
14 | < 5.00 | COc1cc(Nc2nccc(Nc3cc4ccccc4nc3C#N)n2)cnc1O[C@H]1C[C@@H](N(C)C)C1 [US20250171431, Compound 269]
15 | 5.70 to 6.30 | COc1cc(Nc2nccc(Nc3cnc4c(c3)OC(C)(C)C(=O)N4)n2)ccc1O[C@H]1C[C@@H](N(C)C)C1 [US20250171431, Compound 288]
16 | > 6.30 | O=S1(=O)CCN([C@H]2CC[C@@H](Oc3ccc(Nc4nccc(Nc5cnc6ccc(Cl)cc6c5)n4)cc3)CC2)CC1 [US20250171431, Compound 309]
17 | > 6.30 | COc1cc(Nc2nccc(Nc3cnc4c(Cl)cccc4c3)n2)ccc1O[C@H]1C[C@@H](N(C)C)C1 [US20250171431, Compound 344]
18 | > 6.30 | COc1cc(Nc2nccc(Nc3cnc4ccc(C#N)cc4c3)n2)ccc1OCCCN1CCCCC1 [US20250171431, Compound 392]
19 | > 6.30 | COc1cc(Nc2nccc(Nc3cnc4cc(Cl)ccc4c3)n2)ccc1OCCCN1CCCCC1 [US20250171431, Compound 428]
20 | > 6.30 | COc1cc(Nc2nccc(Nc3cnc4ccc(Cl)cc4c3)n2)cnc1N1CCNC(C(F)F)C1 (stereo not given) [US20250171431, Compound 483]
